Test system: Karenia brevis (KB) cells
Experiment: SYTOX-Green assay of cell-membrane integrity
Type: cell-based
Method: SYTOX-Green Assay. The effects of treatments on the cells were also investigated utilizing the SYTOX-green assay, a technique designed to evaluate cell-membrane integrity. The SYTOX-green dye selectively permeates through compromised cell membranes and produces green-fluorescent color upon interaction with nucleic acid. […] For the assay protocol, a 1.0 ml aliquot of the cell suspension was incubated with 10 μl of the dye solution ([…]) for 15 minutes in the dark, resulting in a final dye concentration of […]. The dye concentration and the incubation time were validated by the heat-treated K. brevis cells for 1 h at 60° C. The cell suspension was then transferred in an optically clear well plate for visualization under an inverted fluorescence microscope (Ex: 465-495 nm; Em: 515 nm, long pass).

[1] = gallic acid 5 mg/mL in the foam stock solution, Tween 80 1.25 mg/mL

O.O=C(O)c1cc(O)c(O)c(O)c1 [gallic acid, Gallic acid monohydrate]
time by which non-viable cells become lysed (loss of green fluorescence) [1]: ≤ 6 h
time to membrane compromised cells (SYTOX-green) [1]: ≤ 3 h
cell green fluorescence (lysis), SYTOX-green (gallic acid in foam, 24 hours): almost total loss of cell green fluorescence
